These results are taken from patent publication US20240317708A1, “INHIBITORS OF TRANSGLUTAMINASES” (ZEDIRA GMBH, priority 2021, published 2024).

Data set [1] in a line: Caco-2 permeability assay (CacoReady kit). In kind it is in vitro ADME. To be noted: human. An outline of the steps: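 Apparent permeability coefficients (Papp) were measured across Caco-2 cell barriers using a ready-to-use kit run per the supplier's protocol. Values serve as a predictor of oral/intestinal bioavailability.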
Data set [2] is described as follows: Log D shake flask method (octanol / PBS pH 7.4, HPLC). Format: physicochemical. The conditions noted are these: octanol/phosphate-buffered saline (PBS); octanol / PBS pH 7.4, shake flask. As to the method: In order to classify the inventive compounds according to their lipophilicity, Log D values (distribution coefficient) were determined by means of the well-established shake flask method, measuring the partition of a compound between an octanol and phosphate-buffered saline (PBS, pH 7.4) by HPLC.

The target of data set [3] is T1, recombinant human transglutaminase 2 (Homo sapiens, UniProt P21980).
T1 construct: purchased Zedira T022
T1 sequence (P21980 1-687): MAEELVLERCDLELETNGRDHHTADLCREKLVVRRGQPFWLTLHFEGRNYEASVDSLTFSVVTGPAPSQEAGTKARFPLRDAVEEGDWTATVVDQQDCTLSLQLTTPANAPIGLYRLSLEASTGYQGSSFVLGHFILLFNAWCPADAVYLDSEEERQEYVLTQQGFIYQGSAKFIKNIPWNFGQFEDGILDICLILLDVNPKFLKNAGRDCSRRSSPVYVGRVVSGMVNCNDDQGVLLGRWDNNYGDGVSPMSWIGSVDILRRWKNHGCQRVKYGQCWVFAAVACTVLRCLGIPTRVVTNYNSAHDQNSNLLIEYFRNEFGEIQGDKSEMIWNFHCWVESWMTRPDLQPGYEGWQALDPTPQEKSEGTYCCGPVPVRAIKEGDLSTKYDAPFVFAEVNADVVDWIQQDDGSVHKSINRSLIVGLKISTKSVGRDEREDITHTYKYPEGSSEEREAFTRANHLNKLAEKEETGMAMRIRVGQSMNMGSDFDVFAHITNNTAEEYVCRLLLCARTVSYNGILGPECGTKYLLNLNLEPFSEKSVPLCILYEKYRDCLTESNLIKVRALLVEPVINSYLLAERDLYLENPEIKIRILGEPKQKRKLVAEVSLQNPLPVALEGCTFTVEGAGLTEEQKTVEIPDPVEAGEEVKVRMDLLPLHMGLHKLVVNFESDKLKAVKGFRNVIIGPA
Nature of the data set: Transglutaminase assay (dansylcadaverine incorporation into dimethylcasein, DCC-assay). To be noted: recombinant human TG2 10 nM, dansylcadaverine/dimethylcasein, 37° C. In kind it is biochemical. The essentials:
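IC50 derived from fluorescence slope between 20 and 30 min (λex 330 nm, λem 500 nm, 37 °C), expressed relative to a 2% DMSO control. Reaction: 10 nM recombinant human TG2, 4 μM dimethylcasein, 16.7 μM dansylcadaverine, 10 mM CaCl2 and glutathione, pH 8.0.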

Each structure is given as a SMILES string.

A word on the Papp: it is the rate of passage across a membrane or cell layer, normalised by area and donor concentration. The term logD denotes the decadic logarithm of the distribution of all forms, ionised or not, between an organic phase and buffer at a given pH. Higher therefore signals a more lipophilic compound. Usually IC50 stands for the point on the concentration scale where inhibition reaches its midpoint. In data set [1], `COC(=O)/C=C/CC[C@H](NC(=O)c1cc(Cl)sc1Cl)C(=O)Nc1cccn(CC(=O)NC23CC4CC(C)(CC(C)(C4)C2)C3)c1=O` [III-124, (S,E)-methyl 6-(2,5-dichlorothiophene-3-carboxamido)-7-(1-(2-(3,5-dimethyladamantane-1-amino)-2-oxoethyl)-2-oxo-1,2-dihydropyridin-3-ylamino)-7-oxohept-2-enoate] returned an apparent permeability (Papp) of 1 to 10 ×10⁻⁶ cm/s. In data set [2], the logD is 3 to 5. The IC50 in data set [3] was less than 25 nM.
In data set [1], `COC(=O)/C=C/CC[C@H](NC(=O)c1sc(C(F)(F)F)nc1C)C(=O)Nc1cccn(CC(=O)N[C@@H]2C[C@@H]3CC[C@H]2C3)c1=O` [III-125, (S,E)-methyl 7-(1-(2-((1S,2R,4R)-bicyclo[2.2.1]heptan-2-ylamino)-2-oxoethyl)-2-oxo-1,2-dihydropyridin-3-ylamino)-6-(4-methyl-2-(trifluoromethyl)thiazole-5-carboxamido)-7-oxohept-2-enoate] registered a Papp of 1 to 10 ×10⁻⁶ cm/s. The logD in data set [2] is 1 to 3. For the same compound, the IC50 in data set [3] was less than 25 nM.
Taken in the same sequence, the figures for `COC(=O)/C=C/CC[C@H](NC(=O)c1cc(Cl)sc1Cl)C(=O)Nc1cccn(CC(=O)N[C@@H]2C[C@@H]3CC[C@H]2C3)c1=O` [III-126, (S,E)-methyl 7-(1-(2-((1S,2R,4R)-bicyclo[2.2.1]heptan-2-ylamino)-2-oxoethyl)-2-oxo-1,2-dihydropyridin-3-ylamino)-6-(2,5-dichlorothiophene-3-carboxamido)-7-oxohept-2-enoate] were 1 to 10 ×10⁻⁶ cm/s, 3 to 5 and less than 25 nM.
For `COC(=O)/C=C/CC[C@H](NC(=O)c1sc(C(F)(F)F)nc1C)C(=O)Nc1cccn(CC(=O)N[C@H]2C[C@H]3CC[C@]2(C)C3(C)C)c1=O` [III-127, (S,E)-methyl 6-(4-methyl-2-(trifluoromethyl)thiazole-5-carboxamido)-7-oxo-7-(2-oxo-1-(2-oxo-2-((1R,2S,4R)-1,7,7-trimethylbicyclo[2.2.1]heptan-2-ylamino)ethyl)-1,2-dihydropyridin-3-ylamino)hept-2-enoate], the Papp in data set [1] was in the range of 1 to 10 ×10⁻⁶ cm/s. Further, the log distribution coefficient (logD) in data set [2] lay in the range of 3 to 5. In addition, the IC50 in data set [3] is less than 25 nM.
On to `COC(=O)/C=C/CC[C@H](NC(=O)c1cc(Cl)sc1Cl)C(=O)Nc1cccn(CC(=O)N[C@H]2C[C@H]3CC[C@]2(C)C3(C)C)c1=O` [III-128, (S,E)-methyl 6-(2,5-dichlorothiophene-3-carboxamido)-7-oxo-7-(2-oxo-1-(2-oxo-2-((1R,2S,4R)-1,7,7-trimethylbicyclo[2.2.1]heptan-2-ylamino)ethyl)-1,2-dihydropyridin-3-ylamino)hept-2-enoate], for which the apparent permeability coefficient (Papp) in data set [1] fell in the range of 1 to 10 ×10⁻⁶ cm/s. The compound also registered a pH-dependent lipophilicity (logD) in data set [2] of 3 to 5. In addition, the IC50 in data set [3] was less than 25 nM.
The like results for `COC(=O)/C=C/CC[C@H](NC(=O)c1ccn(C)n1)C(=O)Nc1cccn(CC(=O)NC2C3CC4CC(C3)CC2C4)c1=O` (stereo partly drawn) [III-129, (S,E)-methyl 7-(1-(2-(2-adamantylamino)-2-oxoethyl)-2-oxo-1,2-dihydropyridin-3-ylamino)-6-(1-methyl-1H-pyrazole-3-carboxamido)-7-oxohept-2-enoate] were, in that order, less than 1 ×10⁻⁶ cm/s, 1 to 3 and 25 to 250 nM.
Taken in the same sequence, the figures for `COC(=O)/C=C/CC[C@H](NC(=O)c1cnn(C)c1)C(=O)Nc1cccn(CC(=O)NC2C3CC4CC(C3)CC2C4)c1=O` (stereo partly drawn) [III-130, (S,E)-methyl 7-(1-(2-(2-adamantylamino)-2-oxoethyl)-2-oxo-1,2-dihydropyridin-3-ylamino)-6-(1-methyl-1H-pyrazole-4-carboxamido)-7-oxohept-2-enoate] were less than 1 ×10⁻⁶ cm/s, 1 to 3 and 25 to 250 nM.
Taken in the same sequence, the figures for `COC(=O)/C=C/CC[C@H](NC(=O)c1ncc(OC)o1)C(=O)Nc1cccn(CCC(=O)NC2C3CC4CC(C3)CC2C4)c1=O` (stereo partly drawn) [III-133, (S,E)-methyl 7-(1-(3-(2-adamantylamino)-3-oxopropyl)-2-oxo-1,2-dihydropyridin-3-ylamino)-6-(5-methoxyoxazole-2-carboxamido)-7-oxohept-2-enoate] were less than 1 ×10⁻⁶ cm/s, 3 to 5 and 250 to 1500 nM.
In data set [1], `COC(=O)/C=C/CC[C@H](NC(=O)c1cnc(C(C)C)o1)C(=O)Nc1cccn(CC(=O)NC23CCC(C2)C3)c1=O` [III-134, (S,E)-methyl 7-(1-(2-(bicyclo[2.1.1]hexan-1-ylamino)-2-oxoethyl)-2-oxo-1,2-dihydropyridin-3-ylamino)-6-(2-isopropyloxazole-5-carboxamido)-7-oxohept-2-enoate] gave a Papp of 1 to 10 ×10⁻⁶ cm/s. Moreover, the logD in data set [2] lay in the range of 1 to 3. Further, the half-inhibitory concentration (IC50) in data set [3] was 25 to 250 nM.
In data set [1], `COC(=O)/C=C/CC[C@H](NC(=O)c1c(C)noc1C)C(=O)Nc1cccn(CC(=O)NC2C3CCCC2CC3)c1=O` (stereo partly drawn) [III-135, (6S,E)-methyl 7-(1-(2-(bicyclo[3.2.1]octan-8-ylamino)-2-oxoethyl)-2-oxo-1,2-dihydropyridin-3-ylamino)-6-(3,5-dimethylisoxazole-4-carboxamido)-7-oxohept-2-enoate] showed a Papp of 1 to 10 ×10⁻⁶ cm/s. Besides, the logD in data set [2] lay in the range of 1 to 3. Besides, in data set [3], the IC50 fell in the range of 25 to 250 nM.
The like results for `COC(=O)/C=C/CC[C@H](NC(=O)c1cncnc1C)C(=O)Nc1cccn(CC(=O)NC2C3CC4CC2CC(C(=O)O)(C4)C3)c1=O` (stereo partly drawn) [III-136, (S,E)-methyl 7-(1-(2-(5-carboxy-2-aminoadamantane)-2-oxoethyl)-2-oxo-1,2-dihydropyridin-3-ylamino)-6-(4-methylpyrimidine-5-carboxamido)-7-oxohept-2-enoate] were, in that order, less than 1 ×10⁻⁶ cm/s, less than 1 and 250 to 1500 nM.
Taken in the same sequence, the figures for `COC(=O)/C=C/CC[C@H](NC(=O)C1CCc2ccccc2C1)C(=O)Nc1cccn(CC(=O)NC2C3CC4CC2CC(C(=O)N(C)C)(C4)C3)c1=O` (stereo partly drawn) [III-137, (6S,E)-methyl 7-(1-(2-(4-aminoadamantane-N,N-dimethyl-1-carboxamide)-2-oxoethyl)-2-oxo-1,2-dihydropyridin-3-ylamino)-7-oxo-6-(1,2,3,4-tetrahydronaphthalene-2-carboxamido)hept-2-enoate] were less than 1 ×10⁻⁶ cm/s, 1 to 3 and 250 to 1500 nM.
Turning to `CCN(CC)C(=O)/C=C/CC[C@H](NC(=O)c1coc(C(C)=O)n1)C(=O)Nc1cccn(CC(=O)NC23CC(C2)C3)c1=O` [III-138, (S,E)-6-(2-acetyloxazole-4-carboxamido)-N7-(1-(2-(bicyclo[1.1.1]pentan-1-ylamino)-2-oxoethyl)-2-oxo-1,2-dihydropyridin-3-yl)-N1,N1-diethylhept-2-enediamide], the Papp in data set [1] was less than 1 ×10⁻⁶ cm/s. Further, the logD in data set [2] is less than 1. Moreover, the IC50 in data set [3] was in the range of 250 to 1500 nM.
The like results for `CCN(CC)C(=O)/C=C/CC[C@H](NC(=O)[C@@H]1CN2CCN1CC2)C(=O)Nc1cccn(CC(=O)NC23CC(C2)C3)c1=O` [III-139, (S,E)-N7-(1-(2-(bicyclo[1.1.1]pentan-1-ylamino)-2-oxoethyl)-2-oxo-1,2-dihydropyridin-3-yl)-6-((S)-1,4-diazabicyclo[2.2.2]octane-2-carboxamido)-N1,N1-diethylhept-2-enediamide] were, in that order, less than 1 ×10⁻⁶ cm/s, less than 1 and 250 to 1500 nM.
The like results for `CC(C)NC(=O)/C=C/CC[C@H](NC(=O)c1c[nH]c2ccccc12)C(=O)Nc1cccn(CC(=O)NC23CC(C2)C3)c1=O` [III-140, (S,E)-N7-(1-(2-(bicyclo[1.1.1]pentan-1-ylamino)-2-oxoethyl)-2-oxo-1,2-dihydropyridin-3-yl)-6-(1H-indole-3-carboxamido)-N1-isopropylhept-2-enediamide] were, in that order, 1 to 10 ×10⁻⁶ cm/s, less than 1 and 25 to 250 nM.
The like results for `Cc1cn2c(C(=O)N[C@@H](CC/C=C/C(=O)NC(C)C)C(=O)Nc3cccn(CC(=O)NC45CC(C4)C5)c3=O)csc2n1` [III-141, (S,E)-N7-(1-(2-(bicyclo[1.1.1]pentan-1-ylamino)-2-oxoethyl)-2-oxo-1,2-dihydropyridin-3-yl)-N1-isopropyl-6-(6-methylimidazo[2,1-b]thiazole-3-carboxamido)hept-2-enediamide] were, in that order, 1 to 10 ×10⁻⁶ cm/s, less than 1 and 250 to 1500 nM.
